# Experimental data published in patent publication US12398154B2, “Azaquinazoline pan-KRas inhibitors” (Mirati Therapeutics, Inc., priority 2020, dated 2025).
# Tests used:
# KRas G12R = KRas G12R (Homo sapiens, UniProt P01116, G12R); assay: biochemical;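 also: TR-FRET displacement assay of compound binding to KRas, read after one hour at room temperature, potency from a four-parameter fit of percent-of-control values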
# Description: (§1) The ability of a compound to bind to KRas was measured using a TR-FRET displacement assay. […] After a 60-minute incubation at room temperature, the reaction was measured using a BMG LABTECH CLARIO star Plus via TR-FRET. […] The POC values were fit to a 4-parameter IC50 equation and the IC50 value reported.
# pERK in ASPC1 cells = assay: Inhibition of KRas phosphorylation of ERK (Cisbio HTRF pERK assay); conditions: Homo sapiens, ASPC1, read-out: Inhibition (HTRF IC50) of KRas-mediated Phosphorylation of ERK, AsPC-1
# KRas G12D = KRas G12D (Homo sapiens, UniProt P01116, G12D); assay: biochemical;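 also: TR-FRET displacement binding assay on KRas, read after a one-hour incubation at room temperature, IC50 fitted from percent-of-control values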
# Description: as §1
# KRas G12V = KRas G12V (Homo sapiens, UniProt P01116, G12V); assay: biochemical;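 also: KRas binding measured by TR-FRET displacement at room temperature, IC50 fitted from percent of control values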
# Description: as §1
# KRas G12C = KRas G12C (Homo sapiens, UniProt P01116, G12C); assay: biochemical;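 also: binding to KRas assessed by TR-FRET displacement after one hour incubation at room temperature, potency fitted from percent-of-control values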
# Description: as §1
# pERK in H727 cells = assay: Inhibition of KRas phosphorylation of ERK (Cisbio HTRF pERK assay); conditions: Homo sapiens, NCI-H727, read-out: Inhibition (HTRF IC50) of KRas-mediated Phosphorylation of ERK, H727
# Description: (§2) To harvest cells from flask using 0.05% Trypsin/EDTA solution. Add 10 mL of media to stop trypsinizing. Pipette the cells into a conical bottom 50 mL centrifuge tube and centrifuge 5 min×1000 rpm. • 2. Re-suspend the cell pellet in media, take a cell count, and then adjust the cell density using fresh media. • 3. Seed 6,000 cells into cell culture plate with 50 μL media. […] Incubate cell plate overnight in a 37° C., 5% CO2 incubator. • Compound titrations • 1. Use Tecan to complete the compound addition. Compounds start from 10 uM top, 3-fold dilution, and 10 doses. The final DMSO concentration is 0.8%. Dispensed 0.2 uM Trametinib as Min control. • 2. Incubate cell plate for 3 hrs in the incubator. • Detection with cisbio pERK HTRF kit • 1. […] At the end of the compound treatment, flick-off the media. • 3. Add 35 μL of lysis buffer per well using a Multidrop Combi. Then place on a plate agitator shaking at 300 rpm at 4° C. for 40 mins. • 4. Make up the HTRF antibody buffer. For each assay plate, mix 50 μL of d2-conjugate antibody with 950 μL of detection buffer. Similarly, mix 50 μL of Cryptate antibody with 950 μL of detection buffer. Then mix the two diluted antibodies together. • 5. Dispense 3.4 μL the antibody buffer to wells of an empty assay plate. Seal the plate and centrifuge plate 30 sec×1000 rpm. • 6. At the end of the 4° C. lysis, centrifuge the lysate plates 3 mins×1500 rpm. • 7. Use the Bravo to transfer 13.6 μL of lysate from cell culture plate to assay plate.
# (§3) Then incubate assay plate for 2 hrs at room temperature. […] At the end of incubation, read plate on the Envision after centrifuging plate 30 sec× • 1000 rpm.
# pERK in PSN1 cells = assay: as above; conditions: Homo sapiens, PSN1, 3 h, read-out: Inhibition (HTRF IC50) of KRas-mediated Phosphorylation of ERK, PSN1
# pERK in MKN1 cells = assay: as above; conditions: Homo sapiens, MKN-1, 3 h, read-out: Inhibition (HTRF IC50) of KRas-mediated Phosphorylation of ERK, MKN1
# Description: as §2, §3
# Chain of KRas G12V (P01116 1-169 isoform P01116-2 G12V): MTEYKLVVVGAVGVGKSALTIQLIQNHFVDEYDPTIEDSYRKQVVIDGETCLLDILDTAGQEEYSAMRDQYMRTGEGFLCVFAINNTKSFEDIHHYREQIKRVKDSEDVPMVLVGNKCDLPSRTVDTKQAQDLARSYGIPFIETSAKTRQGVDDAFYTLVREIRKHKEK
# Chain of KRas G12R (P01116 1-169 isoform P01116-2 G12R): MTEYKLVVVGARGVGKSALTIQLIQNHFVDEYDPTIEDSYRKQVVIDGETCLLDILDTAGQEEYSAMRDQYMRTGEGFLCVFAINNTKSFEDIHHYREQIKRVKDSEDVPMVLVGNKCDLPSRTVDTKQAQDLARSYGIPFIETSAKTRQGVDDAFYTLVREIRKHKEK
# Chain of KRas G12D (P01116 1-169 isoform P01116-2 G12D): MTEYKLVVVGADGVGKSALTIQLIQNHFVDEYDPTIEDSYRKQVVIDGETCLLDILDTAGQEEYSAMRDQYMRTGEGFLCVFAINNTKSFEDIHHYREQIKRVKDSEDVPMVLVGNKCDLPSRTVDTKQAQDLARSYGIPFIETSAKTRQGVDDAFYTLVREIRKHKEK
# Chain of KRas G12C (P01116 1-169 isoform P01116-2 G12C): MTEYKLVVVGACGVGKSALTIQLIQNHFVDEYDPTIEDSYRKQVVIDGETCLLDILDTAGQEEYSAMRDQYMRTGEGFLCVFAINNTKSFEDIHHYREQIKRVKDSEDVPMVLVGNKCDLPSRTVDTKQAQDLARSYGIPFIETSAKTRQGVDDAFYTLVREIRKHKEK
Compound,IC50 (KRas G12R),IC50 (pERK in ASPC1 cells),IC50 (KRas G12D),IC50 (KRas G12V),IC50 (KRas G12C),IC50 (pERK in H727 cells),IC50 (pERK in PSN1 cells),IC50 (pERK in MKN1 cells)
"O=C1CC2(CCCN(c3nc(OCC45CCCN4CCC5)nc4c(F)c(-c5cc(O)cc(Cl)c5C5CC5)ncc34)C2)N1 (stereo not drawn) [Example 518, 6-(7-(3-chloro-2-cyclopropyl-5-hydroxyphenyl)-8-fluoro-2-((tetrahydro-1H-pyrrolizin-7a(5H)-yl)methoxy)pyrido[4,3-d]pyrimidin-4-yl)-1,6-diazaspiro[3.5]nonan-2-one]",≤ 2 nM,≥ 10000 nM,≤ 2 nM,≤ 2 nM,,9210 nM,,
"O=C1NC(=O)C2CN(c3nc(OCC45CCCN4CCC5)nc4c(F)c(-c5cc(O)cc(Cl)c5C5CC5)ncc34)CC12 (stereo not drawn) [Example 519, 5-(7-(3-chloro-2-cyclopropyl-5-hydroxyphenyl)-8-fluoro-2-((tetrahydro-1H-pyrrolizin-7a(5H)-yl)methoxy)pyrido[4,3-d]pyrimidin-4-yl)tetrahydropyrrolo[3,4-c]pyrrole-1,3(2H,3aH)-dione]",≤ 2 nM,≥ 10000 nM,≤ 2 nM,≤ 2 nM,,≥ 10000 nM,,
"Cc1cc2[nH]ncc2c(-c2ncc3c(N4CCC[C@@](C)(O)C4)nc(OCC4(CN(C)C)CC4)nc3c2F)c1C [Example 520, (3R)-1-(7-(5,6-dimethyl-1H-indazol-4-yl)-2-((1-((dimethylamino)methyl)cyclopropyl)methoxy)-8-fluoropyrido[4,3-d]pyrimidin-4-yl)-3-methylpiperidin-3-ol]",1750 nM,≥ 10000 nM,692 nM,614 nM,,≥ 10000 nM,,
"Cc1cc2[nH]ncc2c(-c2ncc3c(N4CCCC5(CNS(=O)(=O)N5)C4)nc(OCC45CCCN4CCC5)nc3c2F)c1C (stereo not drawn) [Example 521, 7-(7-(5,6-dimethyl-1H-indazol-4-yl)-8-fluoro-2-((hexahydro-1H-pyrrolizin-7a-yl)methoxy)pyrido[4,3-d]pyrimidin-4-yl)-2-thia-1,3,7-triazaspiro[4.5]decane 2,2-dioxide]",3 nM,≥ 10000 nM,4 nM,≤ 2 nM,,≥ 10000 nM,,
"Cc1cc2[nH]ncc2c(-c2ncc3c(N4CCOCC(C)(O)C4)nc(OCC45CCCN4CCC5)nc3c2F)c1C (stereo not drawn) [Example 522, 4-(7-(5,6-dimethyl-1H-indazol-4-yl)-8-fluoro-2-((hexahydro-1H-pyrrolizin-7a-yl)methoxy)pyrido[4,3-d]pyrimidin-4-yl)-6-methyl-1,4-oxazepan-6-ol]",759 nM,≥ 10000 nM,292 nM,390 nM,,≥ 10000 nM,,
"Cc1cc2[nH]ncc2c(-c2ncc3c(N4CCCC5(CC(=O)N5)C4)nc(OCC45CCCN4CCC5)nc3c2F)c1C (stereo not drawn) [Example 523, 6-(7-(5,6-dimethyl-1H-indazol-4-yl)-8-fluoro-2-((hexahydro-1H-pyrrolizin-7a-yl)methoxy)pyrido[4,3-d]pyrimidin-4-yl)-1,6-diazaspiro[3.5]nonan-2-one]",217 nM,≥ 10000 nM,166 nM,129 nM,,≥ 10000 nM,,

# More lines, now with the values ahead:
IC50 (KRas G12R),IC50 (pERK in ASPC1 cells),IC50 (KRas G12D),IC50 (KRas G12V),IC50 (KRas G12C),IC50 (pERK in H727 cells),IC50 (pERK in PSN1 cells),IC50 (pERK in MKN1 cells),Compound
1310 nM,≥ 10000 nM,433 nM,633 nM,679 nM,≥ 10000 nM,,,"Cc1cc2[nH]ncc2c(-c2ncc3c(N4CCCC(C)(O)C4)nc(OCC45CCCN4CCC5)nc3c2F)c1C (stereo not drawn) [Example 25, 1-(7-(5,6-dimethyl-1H-indazol-4-yl)-8-fluoro-2-((hexahydro-1H-pyrrolizin-7a-yl)methoxy)pyrido[4,3-d]pyrimidin-4-yl)-3-methylpiperidin-3-ol]"
94 nM,3410 nM,138 nM,83 nM,,4820 nM,≥ 10000 nM,796 nM,"CCc1c(F)ccc2cc(O)cc(-c3ncc4c(N5CCCC6(CC(F)C6)C5)nc(OC[C@@]56CCCN5C[C@H](F)C6)nc4c3F)c12 (stereo partly drawn) [Example 344, 5-ethyl-6-fluoro-4-(8-fluoro-4-(2-fluoro-6-azaspiro[3.5]nonan-6-yl)-2-(((2R,7aS)-2-fluorohexahydro-1H-pyrrolizin-7a-yl)methoxy)pyrido[4,3-d]pyrimidin-7-yl)naphthalen-2-ol]"
3 nM,6620 nM,9 nM,≤ 2 nM,,1220 nM,,,"CCc1c(F)ccc2cc(O)cc(-c3ncc4c(NCC5CNC5=O)nc(OC[C@@]56CCCN5C[C@H](F)C6)nc4c3F)c12 (stereo partly drawn) [Example 485, 3-(((7-(8-ethyl-7-fluoro-3-hydroxynaphthalen-1-yl)-8-fluoro-2-(((2R,7aS)-2-fluorotetrahydro-1H-pyrrolizin-7a(5H)-yl)methoxy)pyrido[4,3-d]pyrimidin-4-yl)amino)methyl)azetidin-2-one]"
186 nM,≥ 10000 nM,336 nM,170 nM,,≥ 10000 nM,,,"CCc1c(F)ccc2cc(O)cc(-c3ncc4c(N5C[C@H]6C[C@@H](C5)[C@H](CO)[C@H]6O)nc(OC[C@@]56CCCN5C[C@H](F)C6)nc4c3F)c12 [Example 486, (1 R,5R,6S,7R)-3-(7-(8-ethyl-7-fluoro-3-hydroxynaphthalen-1-yl)-8-fluoro-2-(((2R,7aS)-2-fluorohexahydro-1H-pyrrolizin-7a-yl)methoxy)pyrido[4,3-d]pyrimidin-4-yl)-7-(hydroxymethyl)-3-azabicyclo[3.2.1]octan-6-ol]"
6 nM,≥ 10000 nM,14 nM,5 nM,,4990 nM,,,"CCc1c(F)ccc2cc(O)cc(-c3ncc4c(N5CCC6C(=O)NC(=O)C6C5)nc(OC[C@@]56CCCN5C[C@H](F)C6)nc4c3F)c12 (stereo partly drawn) [Example 487, 5-(7-(8-ethyl-7-fluoro-3-hydroxynaphthalen-1-yl)-8-fluoro-2-(((2R,7aS)-2-fluorohexahydro-1H-pyrrolizin-7a-yl)methoxy)pyrido[4,3-d]pyrimidin-4-yl)hexahydro-1H-pyrrolo[3,4-c]pyridine-1,3(2H)-dione]"
7 nM,1350 nM,8 nM,≤ 2 nM,,1820 nM,,,CCc1c(F)ccc2cc(O)cc(-c3ncc4c(N(C)CC5CNS(=O)(=O)N5)nc(OC[C@@]56CCCN5C[C@H](F)C6)nc4c3F)c12 (stereo partly drawn) [Example 495]
,987 nM,,,,503 nM,≥ 10000 nM,43 nM,"CCc1c(F)ccc2cc(O)cc(-c3ncc4c(N5C[C@H](CO)OC[C@](C)(O)C5)nc(OC[C@@]56CCCN5C[C@H](F)C6)nc4c3F)c12 [Example 497, (2R,6R)-4-(7-(8-ethyl-7-fluoro-3-hydroxynaphthalen-1-yl)-8-fluoro-2-(((2R,7aS)-2-fluorohexahydro-1H-pyrrolizin-7a-yl)methoxy)pyrido[4,3-d]pyrimidin-4-yl)-2-(hydroxymethyl)-6-methyl-1,4-oxazepan-6-ol]"
14 nM,1550 nM,5 nM,12 nM,,2190 nM,,,"CCc1c(F)ccc2cc(O)cc(-c3ncc4c(N5CCCC6(CCS(=N)(=O)C6)C5)nc(OC[C@@]56CCCN5C[C@H](F)C6)nc4c3F)c12 (stereo partly drawn) [Example 508, 7-(7-(8-ethyl-7-fluoro-3-hydroxynaphthalen-1-yl)-8-fluoro-2-(((2R,7aS)-2-fluorohexahydro-1H-pyrrolizin-7a-yl)methoxy)pyrido[4,3-d]pyrimidin-4-yl)-2-imino-2-thia-7-azaspiro[4.5]decane 2-oxide]"
